Assay results published in patent publication US12153062B2, “Method for estimating physical property of aqueous sample” (Kao Corporation, priority 2018, dated 2024).
Blank lines part the entries; values can stand above or below the molecule they belong to.

Key:
Assay type in all cases: physicochemical
[1] = Amount of phase-changing probe 2-EHDG required until phase structure changes (Wm phase to Om phase + W phase); liquid physical property index read from calibration curve
[2] = as above; conditions: for Solution physical property index (corresponding HLB) from calibration curve: 100 mmol/kg
Description: (§1) Using the following components, precursor samples and standard samples for preparing calibration curves were prepared, and using any of the following phase-changing probes, an amount of the phase-changing probe required until a phase structure of a standard sample changed was quantified for each of a plurality of surfactants (G). The calibration curves were prepared from the plurality of quantitative values obtained. • Surfactant (G): a plurality of polyoxyethylene lauryl ethers with different average numbers of added moles of the ethylene oxide • Oil component: an isoparaffin with an average number of carbons of 16 (hereinafter, referred to as C16 isoparaffin) • Phase-changing probe: 2-ethylhexyl diglycol or butyldiglycol
(§2) The concentration of surfactant (G) in each precursor sample was 200 mmol/kg (the balance was water).
(§3) The amount of the oil component added per 100 g of each precursor sample was determined to be 4 g by assigning 50 to X in the aforementioned formula (I).
For this standard sample, 2-ethylhexyl diglycol (hereinafter, sometimes also referred to as 2-EHDG) was used as the phase-changing probe, and an amount of the phase-changing probe required until a phase structure of the standard sample changed from a micellar solution phase (Wm phase) to a mixed system of a reversed micellar oil solution phase (Om phase) and a water phase (W phase) was taken as the quantitative value.
(§4) Note that, in either case, the ambient temperature when the phase-changing probe was added to the standard sample was 25° C. Further, in either case, the phase-changing probe was added to the standard sample under the condition of being stirred with a magnetic stirrer.
(§5) Note that the quantitative values and HLB values were entered into spreadsheet software “Excel” (manufactured by Microsoft Corporation) to be processed, thereby obtaining the calibration curves as regression lines (calibration curves 1 and 2). Calibration curves 1 and 2 are shown in Graph A (FIG. 1).
As the oil components, components shown in Table 3 were used; as the phase-changing probe, 2-EHDG was used; and the concentration of surfactant (G) in each precursor sample was 100 mmol/kg. Note that, in this example, the amount of an oil component added per 100 g of each precursor sample was determined to be 2 g by assigning 50 to X in the aforementioned formula (I).
A measurement sample was prepared by adding 2 g of any of the oil components shown in Table 3 per 100 g of the aqueous sample.
2-EHDG as the phase-changing probe was added to the measurement sample under the same conditions as those for preparing the calibration curves, and an amount of the phase-changing probe required until a phase structure changed was quantified.

[3] = Amount of phase-changing probe BDG required until phase structure changes (Om phase + W phase to Wm phase); conditions: surfactant 200 mmol/kg; C16 isoparaffin 4 g per 100 g; 25° C.; for calibration curve 2
Description: as §1, §2, §3
On the other hand, in the case where an average number of added moles of the ethylene oxide of surfactant (G) was relatively small (the average number of added moles was 2 to 5), the initial phase structure of the standard sample was a mixed system of a reversed micellar oil solution phase (Om phase) and a water phase (W phase). For this standard sample, butyldiglycol (hereinafter, sometimes also referred to as BDG) was used as the phase-changing probe, and an amount of the phase-changing probe required until a phase structure of the standard sample changed from a mixed system of a reversed micellar oil solution phase (Om phase) and a water phase (W phase) to a micellar solution phase (Wm phase) was taken as the quantitative value.
as §4, §5

[4] = surfactant 100 mmol/kg, solvent BDG 5 mass %, C16 isoparaffin 2 g per 100 g, 25° C., calibration curve 10, no inorganic salt
[5] = surfactant 100 mmol/kg, solvent BDG 5 mass %, C16 isoparaffin 2 g per 100 g, no inorganic salt
[6] = surfactant 100 mmol/kg, oil component C16 isoparaffin 2 g per 100 g, calibration curve 3
[7] = surfactant 100 mmol/kg, oil component Cyclohexane 2 g per 100 g, calibration curve 7
[8] = surfactant 100 mmol/kg, oil component Decane 2 g per 100 g, calibration curve 4
[9] = surfactant 100 mmol/kg, oil component Hexadecane 2 g per 100 g, calibration curve 6
[10] = surfactant 100 mmol/kg, oil component Tetradecane 2 g per 100 g, calibration curve 5
[11] = concentration of polyoxyethylene lauryl ether 5 mmol/kg, C16 isoparaffin 0.1 g per 100 g, calibration curve 8
[12] = concentration of polyoxyethylene lauryl ether 350 mmol/kg, C16 isoparaffin 7 g per 100 g, calibration curve 9
[13] = surfactant 200 mmol/kg, C16 isoparaffin 4 g per 100 g, 25° C., for calibration curve 1

Molecule: CCCCCCCCCCCC[N+](C)(C)Cc1ccccc1.[Cl-] [Lauryldimethylbenzylammonium chloride]
- Quantitative value (g) of phase-changing probe (2-EHDG) [1, 4]: 10.36 g
- Solution physical property index (corresponding HLB) from calibration curve 10 [1, 5]: 13.97

Molecule: CCCCCCCCCCCC[N+](C)(C)C.[Cl-] [Lauryltrimethylammonium chloride]
- Quantitative value (g) of phase-changing probe (2-EHDG) [1, 4]: 11.04 g
- Solution physical property index (corresponding HLB) from calibration curve 10 [1, 5]: 14.25

- Quantitative value (g) of phase-changing probe (2-EHDG) [1, 4]: 4.72 g
- Solution physical property index (corresponding HLB) from calibration curve 10 [1, 5]: 11.60
Molecule: CCCCCCCCCCCCCC[N+](C)(C)[O-] [Myristyl dimethylamine oxide]

Molecule: CCCCCCCCCCCC[N+](C)(C)CC(O)CS(=O)(=O)[O-] (stereo not drawn) [N-lauryl-N,N-dimethyl-N-(2-hydroxysulfopropyl)ammonium sulfobetaine]
- Quantitative value (g) of phase-changing probe (2-EHDG) [1, 4]: 3.60 g
- Solution physical property index (corresponding HLB) from calibration curve ([2]; oil component C16 isoparaffin, calibration curve 3): 11.46
- Solution physical property index (corresponding HLB) from calibration curve ([2]; oil component Decane, calibration curve 4): 11.52
- Solution physical property index (corresponding HLB) from calibration curve ([2]; oil component Hexadecane, calibration curve 6): 11.44
- Solution physical property index (corresponding HLB) from calibration curve ([2]; oil component Tetradecane, calibration curve 5): 11.47
- Quantitative value (g) of phase-changing probe (2-EHDG) [2, 6]: 2.36 g
- Quantitative value (g) of phase-changing probe (2-EHDG) [2, 7]: 1.15 g
- Quantitative value (g) of phase-changing probe (2-EHDG) [2, 8]: 2.36 g
- Quantitative value (g) of phase-changing probe (2-EHDG) [2, 9]: 2.78 g
- Quantitative value (g) of phase-changing probe (2-EHDG) [2, 10]: 2.66 g

Molecule: CCCCCCCC[N+](C)(C)Cc1ccccc1.[Cl-] [Octyldimethylbenzylammonium chloride]
- Quantitative value (g) of phase-changing probe (2-EHDG) [1, 4]: 9.20 g
- Solution physical property index (corresponding HLB) from calibration curve 10 [1, 5]: 13.48

Molecule: CCCCCCCCCCCCCCCC[N+](C)(C)C.[Cl-] [Palmityltrimethylammonium chloride]
- Quantitative value (g) of phase-changing probe (2-EHDG) [1, 4]: 9.12 g
- Solution physical property index (corresponding HLB) from calibration curve 10 [1, 5]: 13.45

Molecule: CCCCC(CC)COC(=O)CC(C(=O)OCC(CC)CCCC)S(=O)(=O)[O-].[Na+] (stereo not drawn) [Sodium di-2-ethylhexylsulfosuccinate]
- Quantitative value (g) of phase-changing probe (2-EHDG) [1, 4]: 5.50 g
- Solution physical property index (corresponding HLB) from calibration curve 10 [1, 5]: 11.93

- Quantitative value (g) of phase-changing probe (2-EHDG) [1, 4]: 4.44 g
- Solution physical property index (corresponding HLB) from calibration curve 10 [1, 5]: 11.48
Molecule: Lauryl glucoside

Molecule: Sodium polyoxyethylene (2 moles on average) lauryl ether sulfate
- Quantitative value (g) of phase-changing probe (2-EHDG) [1, 4]: 17.68 g
- Solution physical property index (corresponding HLB) from calibration curve 10 [1, 5]: 17.04

Molecule: Sodium polyoxyethylene (4 moles on average) lauryl ether sulfate
- Quantitative value (g) of phase-changing probe (2-EHDG) [1, 4]: 19.88 g
- Solution physical property index (corresponding HLB) from calibration curve 10 [1, 5]: 17.96

Molecule: polyoxyethylene (6 moles on average) lauryl ether [Polyoxyethylene lauryl ether 6]
- Quantitative value (g) of phase-changing probe (2-EHDG) [1, 11]: 0.24 g
- Quantitative value (g) of phase-changing probe (2-EHDG) [1, 12]: 2.44 g
- Quantitative value (g) of phase-changing probe (2-EHDG) [1, 4]: 4.76 g
- Quantitative value (g) of phase-changing probe (2-EHDG) [2, 6]: 2.96 g
- Quantitative value (g) of phase-changing probe (2-EHDG) [2, 7]: 1.96 g
- Quantitative value (g) of phase-changing probe (2-EHDG) [2, 8]: 2.78 g
- Quantitative value (g) of phase-changing probe (2-EHDG) [2, 9]: 3.4 g
- Quantitative value (g) of phase-changing probe (2-EHDG) [2, 10]: 3.2 g
- Quantitative value (g) of phase-changing probe (2-EHDG) [2, 13]: 1.7 g

- Quantitative value (g) of phase-changing probe (BDG) [3]: 18.57 g
Molecule: polyoxyethylene lauryl ether [Polyoxyethylene lauryl ether 2]

- Quantitative value (g) of phase-changing probe (BDG) [3]: 13.2 g
Molecule: polyoxyethylene lauryl ether [Polyoxyethylene lauryl ether 3]

- Quantitative value (g) of phase-changing probe (2-EHDG) [1, 4]: 1.16 g
- Quantitative value (g) of phase-changing probe (BDG) [3]: 7.29 g
Molecule: polyoxyethylene lauryl ether [Polyoxyethylene lauryl ether 4]

- Quantitative value (g) of phase-changing probe (2-EHDG) [1, 4]: 2.12 g
- Quantitative value (g) of phase-changing probe (BDG) [3]: 5.5 g
Molecule: polyoxyethylene lauryl ether [Polyoxyethylene lauryl ether 5]

Molecule: polyoxyethylene lauryl ether [Polyoxyethylene lauryl ether 9]
- Quantitative value (g) of phase-changing probe (2-EHDG) [1, 11]: 0.46 g
- Quantitative value (g) of phase-changing probe (2-EHDG) [1, 12]: 9.36 g
- Quantitative value (g) of phase-changing probe (2-EHDG) [1, 4]: 9.46 g
- Quantitative value (g) of phase-changing probe (2-EHDG) [2, 6]: 7.58 g
- Quantitative value (g) of phase-changing probe (2-EHDG) [2, 7]: 5.84 g
- Quantitative value (g) of phase-changing probe (2-EHDG) [2, 8]: 6.98 g
- Quantitative value (g) of phase-changing probe (2-EHDG) [2, 9]: 7.74 g
- Quantitative value (g) of phase-changing probe (2-EHDG) [2, 10]: 7.6 g
- Quantitative value (g) of phase-changing probe (2-EHDG) [2, 13]: 5.38 g

Molecule: polyoxyethylene lauryl ether [Polyoxyethylene lauryl ether 12]
- Quantitative value (g) of phase-changing probe (2-EHDG) [1, 11]: 0.94 g
- Quantitative value (g) of phase-changing probe (2-EHDG) [1, 12]: 11.76 g
- Quantitative value (g) of phase-changing probe (2-EHDG) [1, 4]: 12.5 g
- Quantitative value (g) of phase-changing probe (2-EHDG) [2, 6]: 10.24 g
- Quantitative value (g) of phase-changing probe (2-EHDG) [2, 7]: 8.24 g
- Quantitative value (g) of phase-changing probe (2-EHDG) [2, 8]: 9.4 g
- Quantitative value (g) of phase-changing probe (2-EHDG) [2, 9]: 10.24 g
- Quantitative value (g) of phase-changing probe (2-EHDG) [2, 10]: 10.02 g
- Quantitative value (g) of phase-changing probe (2-EHDG) [2, 13]: 7.4 g

- Quantitative value (g) of phase-changing probe (2-EHDG) [1, 11]: 1.28 g
- Quantitative value (g) of phase-changing probe (2-EHDG) [2, 13]: 11.92 g
Molecule: polyoxyethylene lauryl ether [Polyoxyethylene lauryl ether 21]
